Like-named read-outs stand apart in the source and are kept apart here.
Target: T1, ICl,SWELL (SWELL1-LRRC8 channel) in HEK-293 cells (Homo sapiens, UniProt Q8IWT6)
T1 construct: applied when the endogenous HEK-293 cell ICl,SWELL current density reached 30 pA/pF; endogenous in cells; host or cells: HEK-293 (ATCC, #CRL-1573)
T1 sequence (Q8IWT6 1-810): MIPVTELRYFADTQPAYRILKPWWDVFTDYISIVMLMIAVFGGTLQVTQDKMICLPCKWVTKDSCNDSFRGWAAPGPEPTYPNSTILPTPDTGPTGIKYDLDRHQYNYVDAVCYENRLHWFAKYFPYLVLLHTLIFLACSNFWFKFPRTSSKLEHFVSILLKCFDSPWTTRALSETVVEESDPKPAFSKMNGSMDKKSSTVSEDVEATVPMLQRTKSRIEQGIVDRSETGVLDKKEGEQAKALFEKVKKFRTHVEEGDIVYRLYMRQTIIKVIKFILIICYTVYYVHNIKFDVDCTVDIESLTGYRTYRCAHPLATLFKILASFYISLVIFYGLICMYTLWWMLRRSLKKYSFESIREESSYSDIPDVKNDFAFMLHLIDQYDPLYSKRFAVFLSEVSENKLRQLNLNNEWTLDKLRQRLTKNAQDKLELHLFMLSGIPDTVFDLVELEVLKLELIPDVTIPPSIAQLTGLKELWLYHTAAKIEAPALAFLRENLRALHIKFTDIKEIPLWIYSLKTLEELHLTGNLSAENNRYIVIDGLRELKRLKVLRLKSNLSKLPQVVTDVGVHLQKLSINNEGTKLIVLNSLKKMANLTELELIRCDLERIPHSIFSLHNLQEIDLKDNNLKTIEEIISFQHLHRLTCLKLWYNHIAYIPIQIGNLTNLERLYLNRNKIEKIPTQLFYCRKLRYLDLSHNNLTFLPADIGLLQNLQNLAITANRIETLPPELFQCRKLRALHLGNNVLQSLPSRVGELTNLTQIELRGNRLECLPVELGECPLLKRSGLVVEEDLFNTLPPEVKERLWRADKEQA
Assay: ICl,SWELL inhibition after hypotonic activation (open channel), patch-clamp
Type: cell-based
Details: for inhibition of channels first opened by hypotonic activation: 1 μM
Experimental: Patch-clamp recordings of β-cells, 3T3-F442A adipocytes, and mature human adipocytes were performed as described previously[24],[28]. Briefly, all patch-clamp experiments were conducted at room temperature using either an Axopatch 200B amplifier or a MultiClamp 700B amplifier paired to a Digidata 1550 digitizer. Data were acquired using pClamp 10.4 software. For hypotonic swelling, extracellular solution consisted of the following (in mM): 90 NaCl, 2 CsCl, 1 MgCl2, 1 CaCl2, 10 HEPES, 10 mannitol, pH 7.4 with NaOH (210 mOsm/kg). The isotonic extracellular solution consisted of the same composition above but with 110 mM instead of 10 mM mannitol (300 mOsm/kg). The swell-activated current was elicited by perfusing cells with a hypotonic solution (210 mOsm/kg). […] For perforated-patch recordings in isolated human adipocytes, the intracellular solution was as above but without ATP and GTP, and contained 360 μg/ml Amphotericin B (Sigma). The holding potential was 0 mV. Voltage ramps from −100 to +100 mV (at 0.4 mV/ms) were applied every 4 s. The sampling interval was 100 μs and filtered at 10 kHz. For perforated-patch recordings, cells with a membrane resistance below 1 GΩ or access resistance above 20 MΩ were discarded. […]

[1] = HEK-293 cells, hypotonic (210 mOsm) stimulation, outward current, compound applied at 30 pA/pF, read-out: IC50 for ICl,SWELL inhibition

CCCCC1(C2CCCC2)Cc2cc(OCC(=O)O)c(Cl)c(Cl)c2C1=O (centres unmarked) [Inactive 1, 2-((2-butyl-6,7-dichloro-2-cyclopentyl-1-oxo-2,3-dihydro-1H-inden-5-yl)oxy)acetic acid]
IC50 [1]: 35.5 µM

CCCCC1(C2CCCC2)Cc2cc(OCCCC(=O)O)c(Cl)c(Cl)c2C1=O (centres unmarked) [SN-401, 4-((2-butyl-6,7-dichloro-2-cyclopentyl-1-oxo-2,3-dihydro-1H-inden-5-yl)oxy)butanoic acid]
IC50: 3.9 µM
inhibition of channels first opened by hypotonic activation: relatively ineffective
concentrations required to effectively inhibit channels when first opened by hypotonic activation (HEK-293 cells): 6 to 10 µM

CCCCC1(C2CCCC2)Cc2cc(OCCCCCC(=O)O)c(Cl)c(Cl)c2C1=O (centres unmarked) [SN-406, 6-((2-butyl-6,7-dichloro-2-cyclopentyl-1-oxo-2,3-dihydro-1H-inden-5-yl)oxy)hexanoic acid]
inhibition of channels first opened by hypotonic activation: relatively ineffective
ICl,SWELL inhibitory activity compared to SN-401 (HEK-293 cells): increased ICl,SWELL inhibitory activity
concentrations required to effectively inhibit channels when first opened by hypotonic activation (HEK-293 cells): 6 to 10 µM
IC50 [1]: 3.1 µM
